Data: patent publication US11351173B2, “Substituted pyrrolo[1,2-a]pyrimidines and their use in the treatment of medical disorders” (Bial—R&D Investments, S.A., priority 2014, dated 2022)
Converted amounts (≈) assume the structure as drawn.

Legend:
[1] = Compound solubility in water; conditions: water; for solubility: Compound Solubility in Water
[2] = biological target: T1, glucocerebrosidase (Gcase) (Homo sapiens, UniProt P04062); assay: Glucocerebrosidase (Gcase) activation assay, 4-methylumbelliferyl-beta-D-glucopyranoside substrate, fluorescence readout; assay type: biochemical; conditions: for activation at 0.1 µM / Percent Gcase Activation, 0.1 μM Test Compound: test compound at 0.1 μM; for activation at 0.1 µM: read-out: Percent Gcase Activation, 0.1 μM Test Compound; for Percent Gcase Activation, 1 μM Test Compound / activation at 1 µM: test compound at 1.0 μM; for activation at 1 µM: read-out: Percent Gcase Activation, 1 μM Test Compound
T1 construct: micellar solution containing 10 nM GCase and 100 nM saposin C
T1 sequence (P04062 40-536): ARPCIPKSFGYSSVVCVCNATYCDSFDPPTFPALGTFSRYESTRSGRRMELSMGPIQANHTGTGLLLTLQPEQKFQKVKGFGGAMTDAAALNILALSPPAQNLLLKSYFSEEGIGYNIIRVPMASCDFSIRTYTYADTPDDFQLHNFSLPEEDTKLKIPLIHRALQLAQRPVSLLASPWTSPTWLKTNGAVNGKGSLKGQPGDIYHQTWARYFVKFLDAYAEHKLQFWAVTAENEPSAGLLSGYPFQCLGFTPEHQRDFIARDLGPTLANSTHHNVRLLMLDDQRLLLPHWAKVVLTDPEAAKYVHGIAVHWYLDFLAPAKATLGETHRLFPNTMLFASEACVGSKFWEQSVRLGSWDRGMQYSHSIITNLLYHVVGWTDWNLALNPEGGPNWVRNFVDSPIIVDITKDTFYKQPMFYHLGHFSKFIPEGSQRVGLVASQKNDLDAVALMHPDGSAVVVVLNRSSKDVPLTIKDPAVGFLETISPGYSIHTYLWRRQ
Procedure: The ability of exemplary compounds to activate glucocerebrosidase (Gcase) was measured.
A 484 μL aliquot of a 1.0 mg/mL solution of phosphatidylserine (PS) (Sigma P7769) in chloroform was evaporated under a stream of nitrogen for 1 hour. The lipid film was dissolved over 4 minutes of vigorous vortexing in 40 mL of 176 mM K2HPO4/50 mM citric acid (pH 4.7) containing 7.5 μL of triton X-100, resulting in a mixed micellar preparation with a composition of 0.32 mM triton and 0.37 mol % PS. 4-Methylumbelliferyl-beta-D-glucopyranoside (ACROS-337025000) was dissolved in the micellar solution to a final concentration of 2 mM for use as the reaction substrate.
Test compounds were diluted to the desired concentrations with dimethylsulfoxide (DMSO) from 10 mM stocks, and 0.41 μL of the DMSO compound mixture was added to 100 μL of micellar solution containing 10 nM GCase and 100 nM saposin C (Enzo ALX-201-262-C050). Pre-incubation was allowed to occur for 30 minutes at room temperature, after which the reaction was initiated by combining 25 μL of substrate solution with 25 μL of compound/GCase/saposin mixture. The reaction proceeded for 15 minutes at room temperature and was stopped by adding 150 μL of 1M glycine, pH 12.5. The endpoint of the reaction was monitored by measuring fluorescence intensity (excitation: 365 nm; emission: 440 nm) on a SpectraMax i3 instrument (Molecular Devices). Test compounds were screened at 1.0 and 0.1 μM final concentration, and subsequent 8-point dose response curves were obtained using 3-fold dilutions from a maximum final concentration of 5 μM.

| solubility [1] | activation at 0.1 µM [2] | Compound Solubility in Water [1] | Percent Gcase Activation, 0.1 μM Test Compound [2] | Percent Gcase Activation, 1 μM Test Compound [2] | activation at 1 µM [2] | SMILES |
| --- | --- | --- | --- | --- | --- | --- |
| 0.8 µg/mL (≈ 2.07 µM) | 10 to 20% | – | – | – | > 60% | Cc1cc(C)n2ccc(C(=O)NC3CCCc4ccc(-c5cocn5)cc43)c2n1 (stereo not shown) [III-122] |
| 19.4 µg/mL (≈ 54.6 µM) | < 10% | – | – | – | > 60% | Cc1cc(C)n2ccc(C(=O)NCC3CCC4(CCCCO4)CC3)c2n1 (stereo not shown) [III-123] |
| 1.2 µg/mL (≈ 3.9 µM) | > 20% | – | – | – | > 60% | CC[C@@H](NC(=O)c1ccn2c(C)cc(C)nc12)c1ccccc1 [III-124] |
| 11.1 µg/mL (≈ 32.3 µM) | 10 to 20% | – | – | – | > 60% | CC[C@H](C)O[C@H]1CC[C@H](NC(=O)c2ccn3c(C)cc(C)nc23)CC1 [III-125] |
| 0.3 µg/mL (≈ 0.868 µM) | > 20% | – | – | – | > 60% | Cc1cc(C)n2ccc(C(=O)NC34CCC(CC3)c3ccccc34)c2n1 [III-126] |
| 0.3 µg/mL (≈ 0.939 µM) | > 20% | – | – | – | > 60% | C#Cc1ccc(NC(=O)c2ccn3c(C)cc(C)nc23)c(OC)c1 [III-129] |
| 0.5 µg/mL (≈ 1.34 µM) | – | – | – | – | > 60% | Cc1cc(C)n2ccc(C(=O)NC3CCc4ccc(-c5cocn5)cc43)c2n1 (stereo not shown) [III-130] |
| 3.4 µg/mL (≈ 10.6 µM) | > 20% | – | – | – | > 60% | [2H]C1(NC(=O)c2ccn3c(C)cc(C)nc23)CCCc2ccccc21 (stereo not shown) [III-131] |
| 5.8 µg/mL (≈ 16.3 µM) | > 20% | – | – | – | > 60% | Cc1cc(C)n2ccc(C(=O)N[C@H]3CC[C@H](OC4CCCC4)CC3)c2n1 [III-132] |
| 1.9 µg/mL (≈ 5.38 µM) | > 20% | – | – | – | > 60% | Cc1cc(C)n2ccc(C(=O)NC3(C)CCOc4c(F)cccc43)c2n1 (stereo not shown) [III-133] |
| 38.5 µg/mL (≈ 104 µM) | < 10% | – | – | – | < 30% | Cc1cc(C)n2ccc(C(=O)NC3CCC(C(=O)N(C)C4CC4)CC3)c2n1 (stereo not shown) [III-134] |
| – | – | 41.1 µg/mL | * (less than 10% Gcase activation) | + (less than 30% Gcase activation) | – | Cc1cc(C)n2ccc(C(=O)NC3CCC(C(=O)N(C)C4CC4)CC3)c2n1 (stereo not shown) [III-135] |
| 2.7 µg/mL (≈ 8.15 µM) | > 20% | – | – | – | > 60% | Cc1cc(C)n2ccc(C(=O)NC3c4ccccc4C4CC3C4)c2n1 (stereo not shown) [III-136] |

The next lines start with the compound.

| SMILES | solubility [1] | activation at 0.1 µM [2] | Compound Solubility in Water [1] | Percent Gcase Activation, 0.1 μM Test Compound [2] | Percent Gcase Activation, 1 μM Test Compound [2] | activation at 1 µM [2] |
| --- | --- | --- | --- | --- | --- | --- |
| Cc1cc(C)n2ccc(C(=O)NC3CCC4(CCCCO4)CC3)c2n1 (stereo not shown) [III-112] | 30.4 µg/mL (≈ 89 µM) | < 10% | – | – | – | – |
| Cc1cc(C)n2ccc(C(=O)NC3CCC4(CCCCO4)CC3)c2n1 (stereo not shown) [III-113] | – | – | 19.7 µg/mL | * (less than 10% Gcase activation) | +++ (Gcase activation greater than 60%) | – |
| CCCOC[C@H]1CC[C@H](NC(=O)c2ccn3c(C)cc(C)nc23)CC1 [III-114] | 1.3 µg/mL (≈ 3.78 µM) | > 20% | – | – | – | > 60% |
| Cc1cc(C)n2ccc(C(=O)NC3CCN(c4ccsc4)CC3)c2n1 [III-115] | 1.9 µg/mL (≈ 5.36 µM) | < 10% | – | – | – | 30 to 60% |
| Cc1cc(C)n2ccc(C(=O)Nc3ccc(-c4cccs4)cn3)c2n1 [III-116] | 0.003 µg/mL (≈ 0.00861 µM) | > 20% | – | – | – | > 60% |
| Cc1cc(C)n2ccc(C(=O)Nc3ccc(-c4ccco4)cc3)c2n1 [III-117] | – | > 20% | 0.02 µg/mL | – | – | > 60% |
| Cc1cc(C)n2ccc(C(=O)NC3(C)CCOc4cccc(F)c43)c2n1 (stereo not shown) [III-118] | 1.4 µg/mL (≈ 3.96 µM) | > 20% | – | – | – | > 60% |
| COC1CCc2ccc(NC(=O)c3ccn4c(C)cc(C)nc34)cc21 (stereo not shown) [III-119] | 2.6 µg/mL (≈ 7.75 µM) | > 20% | – | – | – | > 60% |
| Cc1cc(C)n2ccc(C(=O)Nc3ccc4c(c3)C(Oc3cccnc3)CC4)c2n1 (stereo not shown) [III-120] | 0.1 µg/mL (≈ 0.251 µM) | > 20% | – | – | – | > 60% |
| Cc1cc(C)n2ccc(C(=O)Nc3ccc4c(c3)C(Oc3ccccn3)CC4)c2n1 (stereo not shown) [III-121] | 0.2 µg/mL (≈ 0.502 µM) | < 10% | – | – | – | 30 to 60% |
